Measured values taken from ChEMBL document CHEMBL1255480, “Characterization of DIM-1, an integron-encoded metallo-beta-lactamase from a Pseudomonas stutzeri clinical isolate in the Netherlands” (2010).
In brackets after ≈: the same amount, converted by molar mass.

Tests used:
[1] = tested on: Escherichia coli; experiment: Antimicrobial activity against Escherichia coli TOP10 harboring beta-lactamase DIM-1 by agar dilution method; assay type: functional
[2] = target: T1, Metallo-beta-lactamase (Pseudomonas stutzeri) (UniProt D5JGF6); experiment: Ratio of Kcat to Km for Pseudomonas stutzeri beta-lactamase DIM-1by UV-spectrophotometry; parameters: unit not given here; conditions: Stutzerimonas stutzeri
T1 sequence (whole entry): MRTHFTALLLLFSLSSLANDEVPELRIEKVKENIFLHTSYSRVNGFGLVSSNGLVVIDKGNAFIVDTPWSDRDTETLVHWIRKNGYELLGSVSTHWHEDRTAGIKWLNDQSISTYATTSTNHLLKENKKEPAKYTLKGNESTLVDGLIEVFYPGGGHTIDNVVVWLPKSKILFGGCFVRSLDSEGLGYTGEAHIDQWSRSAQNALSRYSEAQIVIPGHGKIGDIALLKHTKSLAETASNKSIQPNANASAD

[3] = tested on: Stutzerimonas stutzeri; experiment: Antimicrobial activity against Pseudomonas stutzeri clinical isolate expressing beta-lactamase DIM-1 by agar dilution method in presence of beta-lactam inhibitor clavulanic acid; assay type: functional
[4] = tested on: Escherichia coli; experiment: Antimicrobial activity against Escherichia coli TOP10 harboring beta-lactamase DIM-1 by agar dilution method in presence of beta-lactam inhibitor clavulanic acid; assay type: functional
[5] = tested on: Escherichia coli; experiment: Antimicrobial activity against Escherichia coli TOP10 by agar dilution method; assay type: functional
[6] = tested on: Escherichia coli; experiment: Antimicrobial activity against Escherichia coli TOP10 by agar dilution method in presence of beta-lactam inhibitor clavulanic acid; assay type: functional
[7] = tested on: Stutzerimonas stutzeri; experiment: Antimicrobial activity against Pseudomonas stutzeri clinical isolate expressing beta-lactamase DIM-1 by agar dilution method; assay type: functional
[8] = tested on: Stutzerimonas stutzeri; experiment: Antimicrobial activity against Pseudomonas stutzeri clinical isolate expressing beta-lactamase DIM-1 by agar dilution method in presence of beta-lactam inhibitor Tazobactam; assay type: functional
[9] = tested on: Escherichia coli; experiment: Antimicrobial activity against Escherichia coli TOP10 harboring beta-lactamase DIM-1 by agar dilution method in presence of beta-lactam inhibitor Tazobactam; assay type: functional
[10] = tested on: Escherichia coli; experiment: Antimicrobial activity against Escherichia coli TOP10 by agar dilution method in presence of beta-lactam inhibitor Tazobactam; assay type: functional
[11] = substrate: CC(=O)OCC1=C(C(=O)O)N2C(=O)[C@@H](NC(=O)Cc3cccs3)[C@H]2SC1; experiment: (§1) Activity of Pseudomonas stutzeri beta-lactamase DIM-1 by UV-spectrophotometry; conditions: Stutzerimonas stutzeri
[12] = substrate: CC(C)(O/N=C(\C(=O)N[C@@H]1C(=O)N2C(C(=O)[O-])=C(C[n+]3ccccc3)CS[C@H]12)c1csc(N)n1)C(=O)O; experiment: as §1; conditions: Stutzerimonas stutzeri
[13] = substrate: CC1(C)S[C@@H]2[C@H](NC(=O)Cc3ccccc3)C(=O)N2[C@H]1C(=O)O; experiment: as §1; conditions: Stutzerimonas stutzeri
[14] = substrate: CC1(C)S[C@@H]2[C@H](NC(=O)[C@H](C(=O)O)c3ccsc3)C(=O)N2[C@H]1C(=O)O; experiment: as §1; conditions: Stutzerimonas stutzeri
[15] = substrate: CC1(C)S[C@@H]2[C@H](NC(=O)[C@H](N)c3ccccc3)C(=O)N2[C@H]1C(=O)O; experiment: as §1; conditions: Stutzerimonas stutzeri
[16] = substrate: CO/N=C(\C(=O)N[C@@H]1C(=O)N2C(C(=O)O)=C(COC(C)=O)CS[C@H]12)c1csc(N)n1; experiment: as §1; conditions: Stutzerimonas stutzeri
[17] = substrate: CO/N=C(\C(=O)N[C@@H]1C(=O)N2C(C(=O)[O-])=C(C[N+]3(C)CCCC3)CS[C@H]12)c1csc(N)n1; experiment: as §1; conditions: Stutzerimonas stutzeri
[18] = substrate: CO[C@@]1(NC(=O)Cc2cccs2)C(=O)N2C(C(=O)O)=C(COC(N)=O)CS[C@@H]21; experiment: as §1; conditions: Stutzerimonas stutzeri
[19] = substrate: C[C@@H](O)[C@H]1C(=O)N2C(C(=O)O)=C(SCCNC=N)C[C@H]12; experiment: as §1; conditions: Stutzerimonas stutzeri
[20] = substrate: C[C@@H](O)[C@H]1C(=O)N2C(C(=O)O)=C(S[C@@H]3CN[C@H](C(=O)N(C)C)C3)[C@H](C)[C@H]12; experiment: as §1; conditions: Stutzerimonas stutzeri
[21] = substrate: C[C@H]1[C@H](NC(=O)/C(=N\OC(C)(C)C(=O)O)c2csc(N)n2)C(=O)N1S(=O)(=O)O; experiment: as §1; conditions: Stutzerimonas stutzeri

## CO/N=C(\C(=O)N[C@@H]1C(=O)N2C(C(=O)[O-])=C(C[N+]3(C)CCCC3)CS[C@H]12)c1csc(N)n1
[1]
  MIC: 1 µg/mL (≈ 2.08 µM)

## CC(=O)OCC1=C(C(=O)O)N2C(=O)[C@@H](NC(=O)Cc3cccs3)[C@H]2SC1
[2]
  Ratio: 5000

## CC1(C)S[C@@H]2[C@H](NC(=O)Cc3ccccc3)C(=O)N2[C@H]1C(=O)O
[2]
  Ratio: 2800

## CC1(C)S[C@@H]2[C@H](NC(=O)[C@H](N)c3ccccc3)C(=O)N2[C@H]1C(=O)O
[2]
  Ratio: 180

## C[C@@H](O)[C@H]1C(=O)N2C(C(=O)O)=C(S[C@@H]3CN[C@H](C(=O)N(C)C)C3)[C@H](C)[C@H]12
[2]
  Ratio: 200

## CC1(C)S[C@@H]2[C@H](NC(=O)[C@H](N)c3ccc(O)cc3)C(=O)N2[C@H]1C(=O)O [AMOXICILLIN]
[3]
  MIC: > 512 µg/mL
[1]
  MIC: > 512 µg/mL
[4]
  MIC: > 512 µg/mL
[5]
  MIC: 4 µg/mL (≈ 10.9 µM)
[6]
  MIC: 4 µg/mL
[7]
  MIC: > 512 µg/mL

## C[C@H]1[C@H](NC(=O)/C(=N\OC(C)(C)C(=O)O)c2csc(N)n2)C(=O)N1S(=O)(=O)O [AZTREONAM]
[1]
  MIC: 0.25 µg/mL (≈ 0.574 µM)

## CO/N=C(\C(=O)N[C@@H]1C(=O)N2C(C(=O)O)=C(COC(C)=O)CS[C@H]12)c1csc(N)n1 [CEFOTAXIME]
[1]
  MIC: 256 µg/mL (≈ 562 µM)
[5]
  MIC: 0.12 µg/mL (≈ 0.263 µM)
[2]
  Ratio: 3000
[7]
  MIC: 512 µg/mL (≈ 1120 µM)

## CO[C@@]1(NC(=O)Cc2cccs2)C(=O)N2C(C(=O)O)=C(COC(N)=O)CS[C@@H]21 [CEFOXITIN]
[1]
  MIC: 512 µg/mL (≈ 1200 µM)
[5]
  MIC: 4 µg/mL (≈ 9.36 µM)
[2]
  Ratio: 400
[7]
  MIC: 512 µg/mL (≈ 1200 µM)

## CC(C)(O/N=C(\C(=O)N[C@@H]1C(=O)N2C(C(=O)[O-])=C(C[n+]3ccccc3)CS[C@H]12)c1csc(N)n1)C(=O)O [CEFTAZIDIME]
[1]
  MIC: 256 µg/mL (≈ 468 µM)
[5]
  MIC: 0.06 µg/mL (≈ 0.11 µM)
[2]
  Ratio: 60
[7]
  MIC: 8 µg/mL (≈ 14.6 µM)

## C[C@@H](O)[C@H]1C(=O)N2C(C(=O)O)=C(SCCNC=N)C[C@H]12 [IMIPENEM ANHYDROUS]
[1]
  MIC: 2 µg/mL (≈ 6.68 µM)
[2]
  Ratio: 440
[7]
  MIC: 64 µg/mL (≈ 214 µM)

## CCN1CCN(C(=O)N[C@@H](C(=O)N[C@@H]2C(=O)N3[C@@H]2SC(C)(C)[C@@H]3C(=O)O)c2ccccc2)C(=O)C1=O [PIPERACILLIN]
[1]
  MIC: > 512 µg/mL
[5]
  MIC: 1 µg/mL (≈ 1.93 µM)
[7]
  MIC: > 512 µg/mL
[8]
  MIC: 512 µg/mL
[9]
  MIC: 512 µg/mL
[10]
  MIC: 1 µg/mL

## CC1(C)S[C@@H]2[C@H](NC(=O)[C@H](C(=O)O)c3ccsc3)C(=O)N2[C@H]1C(=O)O [TICARCILLIN]
[3]
  MIC: > 512 µg/mL
[1]
  MIC: > 512 µg/mL
[4]
  MIC: > 512 µg/mL
[5]
  MIC: 4 µg/mL (≈ 10.4 µM)
[6]
  MIC: 4 µg/mL
[2]
  Ratio: 15000
[7]
  MIC: > 512 µg/mL

B1: Metallo-beta-lactamase (Pseudomonas stutzeri), D5JGF6 (protein)
chain: MRTHFTALLLLFSLSSLANDEVPELRIEKVKENIFLHTSYSRVNGFGLVSSNGLVVIDKGNAFIVDTPWSDRDTETLVHWIRKNGYELLGSVSTHWHEDRTAGIKWLNDQSISTYATTSTNHLLKENKKEPAKYTLKGNESTLVDGLIEVFYPGGGHTIDNVVVWLPKSKILFGGCFVRSLDSEGLGYTGEAHIDQWSRSAQNALSRYSEAQIVIPGHGKIGDIALLKHTKSLAETASNKSIQPNANASAD
[11]
  Km: 6 µM
  kcat: 30 s⁻¹
[12]
  Km: 50 µM
  kcat: 3 s⁻¹
[13]
  Km: 90 µM
  kcat: 250 s⁻¹
[14]
  Km: 80 µM
  kcat: 250 s⁻¹
[15]
  Km: 110 µM
  kcat: 20 s⁻¹
[16]
  Km: 3.5 µM
  kcat: 10 s⁻¹
[17]
  Km: 220 µM
  kcat: 3 s⁻¹
[18]
  Km: 20 µM
  kcat: 8 s⁻¹
[19]
  Km: 80 µM
  kcat: 35 s⁻¹
[20]
  Km: 20 µM
  kcat: 4 s⁻¹
[21]
  kcat: < 0.01 s⁻¹
